Format in all cases: cell-based
The subject of test [1] is EBC-1 lung cancer cell line. Put plainly: EBC-1 cell proliferation, CellTiter-Glo assay. Particulars: Homo sapiens, 120 h; Ebc-1 cell viability, CTG assay, 5 days of treatment; read-out: CTG 5 day Ebc1 GI50. An outline of the steps: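 CellTiter-Glo read-out after 5-day compound treatment, normalised to untreated cells, with GI50 derived by four-parameter logistic regression. Ten concentrations spanning 0.508 nM–10 μM were added to 1000 EBC-1 cells per well the day after seeding. Assays required at least one cell doubling versus Day 0.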
A general note: ATP-based viability assays read luminescence as a measure of living cells.

The subject of a further test is MOLT-4 cells. The test is described as follows: MOLT-4 cell viability, MTT assay. Particulars: Homo sapiens, MOLT-4, 48 h. An outline of the steps: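 MOLT-4 cells in RPMI 1640 with 10% FBS were exposed to compounds for 48 h at 9 concentrations (3.16-fold dilutions, triplicates). After 4 h with MTT and overnight SDS/HCl solubilisation, absorbance was read at 540 nm. IC50 came from four-parameter fits versus control, as the mean of ≥2 independent experiments.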
On the technique in general: Tetrazolium dyes change colour on reduction, which living cells bring about.

Another test has as its target T1, HiBiT-tagged BCL-xL (Homo sapiens, UniProt Q07817).
T1 construct: expressed in transfected cells; host or cells: NCI-H1650 (ATCC No. CRL-5883), engineered HiBiT cell line
Put plainly: NCI-H1650 BCL-xL protein levels, Nano-Glo HiBiT Lytic Detection. Particulars: NCI-H1650 expressing HiBiT-tagged BCL-xL, overnight incubation, read-out: Bcl-xl HIBIT NCIH1650 DC50. An outline of the steps: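 HiBiT luminescence after cell lysis with LgBiT/furimazine reagent reported BCL-xL levels, expressed relative to untreated wells and fitted with a four-parameter logistic equation. Engineered NCI-H1650 cells were exposed overnight at 37° C to compound at final 0.508 nM-10 μM (10 points, triplicate plates).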
On the technique in general: With HiBiT, luminescence reflects the tagged protein that the partner subunit can reach.

A further test addresses T2, Bcl-xL (Homo sapiens, UniProt Q07817).
T2 construct: Measured levels of Bcl-xL protein of HCT116 cells treated with the tested compounds; host or cells: HCT116
Put plainly: HCT116 Bcl-xL degradation, capillary-based immunoassay (WES). The conditions noted are these: for DC50: HCT116, 24 h, 9-point serial dilution; for remaining activity at 0.01 µM / remaining activity at 0.1 µM: HCT-116, 24 h, % of untreated cells; for remaining activity at 0.01 µM: HCT116, 10 nM; for remaining activity at 0.1 µM: HCT116, 100 nM. A digest of the protocol: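 Bcl-xL protein level by capillary WES immunoassay in HCT116 lysates, as % of untreated after cofilin normalization. Compound exposure was 24 h at 10 and 100 nM and/or a 9-point series, in quadruplicate. Four-parameter fitting gave the DC50.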

pIC50: −log10 of the molar value.

T2 sequence (Q07817 whole entry): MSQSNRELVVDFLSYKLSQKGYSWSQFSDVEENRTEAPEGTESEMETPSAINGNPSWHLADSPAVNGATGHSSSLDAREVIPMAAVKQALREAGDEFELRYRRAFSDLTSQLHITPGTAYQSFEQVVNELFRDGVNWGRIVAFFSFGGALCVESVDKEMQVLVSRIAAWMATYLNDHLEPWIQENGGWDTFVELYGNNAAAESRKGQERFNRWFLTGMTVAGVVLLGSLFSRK
T1 sequence (Q07817 whole entry): as above

For orientation: GI50 means the concentration that inhibits growth by half. For orientation: pIC50 means −log10 of the IC50, conventionally taken in molar units. Lower therefore signals a large IC50. Turning to `Cc1ncsc1-c1ccc([C@H](C)NC(=O)[C@@H]2C[C@@H](O)CN2C(=O)[C@@H](NC(=O)CCCCCCCCCCN(C)CCOC23CC4(C)CC(C)(CC(Cn5ncc(-c6ccc(N7CCCc8c7nnc(Nc7nc9ccccc9s7)c8C)nc6C(=O)O)c5C)(C4)C2)C3)C(C)(C)C)cc1` [Example 135, 6-[3-(1,3-benzothiazol-2-ylamino)-4-methyl-6,7-dihydro-5H-pyrido[2,3-c]pyridazin-8-yl]-3-[1-[[3-[2-[[11-[[(1S)-1-[(2S,4R)-4-hydroxy-2-[[(1S)-1-[4-(4-methylthiazol-5-yl)phenyl]ethyl]carbamoyl]pyrrolidine-1-carbonyl]-2,2-dimethyl-propyl]amino]-11-oxo-undecyl]-methyl-amino]ethoxy]-5,7-dimethyl-1-adamantyl]methyl]-5-methyl-pyrazol-4-yl]pyridine-2-carboxylic acid], in test [1], the GI50 came to 4 nM. Further, the negative-log IC50 (pIC50) in the test with MOLT-4 cells is 8.45. Further, the DC50 on HiBiT-tagged BCL-xL amounted to 1 nM; at Bcl-xL it was 0.978 nM.

By remaining activity is commonly meant the signal under treatment as a percentage of the control signal. With `Cc1ncsc1-c1ccc([C@H](C)NC(=O)[C@@H]2C[C@@H](O)CN2C(=O)[C@@H](NC(=O)CCCCCCCCCCCCCN(C)CCOC23CC4(C)CC(C)(CC(Cn5ncc(-c6ccc(N7CCCc8c7nnc(Nc7nc9ccccc9s7)c8C)nc6C(=O)O)c5C)(C4)C2)C3)C(C)(C)C)cc1` [Example 4, 6-[3-(1,3-benzothiazol-2-ylamino)-4-methyl-6,7-dihydro-5H-pyrido[2,3-c]pyridazin-8-yl]-3-[1-[[3-[2-[[14-[[(1S)-1-[(2S,4R)-4-hydroxy-2-[[(1S)-1-[4-(4-methylthiazol-5-yl)phenyl]ethyl]carbamoyl]pyrrolidine-1-carbonyl]-2,2-dimethyl-propyl]amino]-14-oxo-tetradecyl]-methyl-amino]ethoxy]-5,7-dimethyl-1-adamantyl]methyl]-5-methyl-pyrazol-4-yl]pyridine-2-carboxylic acid], the GI50 in test [1] is 1 nM. The pIC50 with MOLT-4 cells was 9.07. Further, the DC50 on HiBiT-tagged BCL-xL turned out to be 0.4 nM. At Bcl-xL, this compound yielded a DC50 of 0.279 nM, a remaining activity at 0.01 µM of 33% and a remaining activity at 0.1 µM of 14%.

With `Cc1ncsc1-c1ccc([C@H](C)NC(=O)[C@@H]2C[C@@H](O)CN2C(=O)[C@@H](NC(=O)CCCCCCN(C)CCOC23CC4(C)CC(C)(CC(Cn5ncc(-c6ccc(N7CCCc8c7nnc(Nc7nc9ccccc9s7)c8C)nc6C(=O)O)c5C)(C4)C2)C3)C(C)(C)C)cc1` [Example 3, 6-[3-(1,3-benzothiazol-2-ylamino)-4-methyl-6,7-dihydro-5H-pyrido[2,3-c]pyridazin-8-yl]-3-[1-[[3-[2-[[7-[[(1S)-1-[(2S,4R)-4-hydroxy-2-[[(1S)-1-[4-(4-methylthiazol-5-yl)phenyl]ethyl]carbamoyl]pyrrolidine-1-carbonyl]-2,2-dimethyl-propyl]amino]-7-oxo-heptyl]-methyl-amino]ethoxy]-5,7-dimethyl-1-adamantyl]methyl]-5-methyl-pyrazol-4-yl]pyridine-2-carboxylic acid], the GI50 in test [1] is 9 nM. In the test on MOLT-4 cells, this compound showed a pIC50 of 7.49. Moreover, the DC50 at HiBiT-tagged BCL-xL came out at 3 nM. On Bcl-xL, the DC50 is 4.21 nM, the remaining activity at 0.01 µM worked out at 23% and the remaining activity at 0.1 µM came out at 17%.

`Cc1ncsc1-c1ccc([C@H](C)NC(=O)[C@@H]2C[C@@H](O)CN2C(=O)[C@@H](NC(=O)CCCCCCCCCCCCN(C)CCOC23CC4(C)CC(C)(CC(Cn5ncc(-c6ccc(N7CCCc8c7nnc(Nc7nc9ccccc9s7)c8C)nc6C(=O)O)c5C)(C4)C2)C3)C(C)(C)C)cc1` [Example 136, 6-[3-(1,3-benzothiazol-2-ylamino)-4-methyl-6,7-dihydro-5H-pyrido[2,3-c]pyridazin-8-yl]-3-[1-[[3-[2-[[13-[[(1S)-1-[(2S,4R)-4-hydroxy-2-[[(1S)-1-[4-(4-methylthiazol-5-yl)phenyl]ethyl]carbamoyl]pyrrolidine-1-carbonyl]-2,2-dimethyl-propyl]amino]-13-oxo-tridecyl]-methyl-amino]ethoxy]-5,7-dimethyl-1-adamantyl]methyl]-5-methyl-pyrazol-4-yl]pyridine-2-carboxylic acid]: in test [1], the 50% growth inhibitory concentration (GI50) came to 1 nM. Moreover, in the test on MOLT-4 cells, the pIC50 was 8.84. For the same compound, the results for the DC50 on HiBiT-tagged BCL-xL and at Bcl-xL were 1 nM and 2.71 nM, respectively.

For `Cc1ncsc1-c1ccc([C@H](C)NC(=O)[C@@H]2CC(O)CN2C(=O)[C@@H](NC(=O)CCCCCCCCCCCCCCN(C)CCOC23CC4(C)CC(C)(CC(Cn5ncc(-c6ccc(N7CCCc8c7nnc(Nc7nc9ccccc9s7)c8C)nc6C(=O)O)c5C)(C4)C2)C3)C(C)(C)C)cc1` (stereo in doubt) [Example 7, 6-[3-(1,3-benzothiazol-2-ylamino)-4-methyl-6,7-dihydro-5H-pyrido[2,3-c]pyridazin-8-yl]-3-[1-[[3-[2-[[15-[[(1S)-1-[(2S,4R)-4-hydroxy-2-[[(1S)-1-[4-(4-methylthiazol-5-yl)phenyl]ethyl]carbamoyl]pyrrolidine-1-carbonyl]-2,2-dimethyl-propyl]amino]-15-oxo-pentadecyl]-methyl-amino]ethoxy]-5,7-dimethyl-1-adamantyl]methyl]-5-methyl-pyrazol-4-yl]pyridine-2-carboxylic acid], the GI50 in test [1] is 2 nM. The compound further gave a pIC50 in the test with MOLT-4 cells of 9.31. For the same compound, the DC50 at HiBiT-tagged BCL-xL worked out at 1 nM. On Bcl-xL, the DC50 is 0.742 nM, the remaining activity at 0.01 µM is 52% and the remaining activity at 0.1 µM is 34%.

In the case of `Cc1ncsc1-c1ccc([C@H](C)NC(=O)C2C[C@@H](O)CN2C(=O)C(NC(=O)CCCCCCC(=O)N2CCN(CC#Cc3ccc(OCCCc4sc(N5CCCc6c5nnc(Nc5nc7ccccc7s5)c6C)nc4C(=O)O)c(F)c3)CC2)C(C)(C)C)cc1` (stereo in doubt) [Example 16, 2-[3-(1,3-benzothiazol-2-ylamino)-4-methyl-6,7-dihydro-5H-pyrido[2,3-c]pyridazin-8-yl]-5-[3-[2-fluoro-4-[3-[4-[8-[[(1S)-1-[(2S,4R)-4-hydroxy-2-[[(1S)-1-[4-(4-methylthiazol-5-yl)phenyl]ethyl]carbamoyl]pyrrolidine-1-carbonyl]-2,2-dimethyl-propyl]amino]-8-oxo-octanoyl]piperazin-1-yl]prop-1-ynyl]phenoxy]propyl]thiazole-4-carboxylic acid], the GI50 in test [1] was 9 nM. In the test on MOLT-4 cells, this compound had a pIC50 of 8.97. Also, on HiBiT-tagged BCL-xL, the DC50 came to 3 nM. Also, at Bcl-xL, the DC50 is 0.47 nM, the remaining activity at 0.01 µM was 7% and the remaining activity at 0.1 µM is 7%.

On to `Cc1ncsc1-c1ccc([C@H](C)NC(=O)C2C[C@@H](O)CN2C(=O)C(NC(=O)CCCCCC(=O)N2CCN(CC#Cc3ccc(OCCCc4sc(N5CCCc6c5nnc(Nc5nc7ccccc7s5)c6C)nc4C(=O)O)c(F)c3)CC2)C(C)(C)C)cc1` (stereo in doubt) [Example 17, 2-[3-(1,3-benzothiazol-2-ylamino)-4-methyl-6,7-dihydro-5H-pyrido[2,3-c]pyridazin-8-yl]-5-[3-[2-fluoro-4-[3-[4-[7-[[(1S)-1-[(2S,4R)-4-hydroxy-2-[[(1S)-1-[4-(4-methylthiazol-5-yl)phenyl]ethyl]carbamoyl]pyrrolidine-1-carbonyl]-2,2-dimethyl-propyl]amino]-7-oxo-heptanoyl]piperazin-1-yl]prop-1-ynyl]phenoxy]propyl] thiazole-4-carboxylic acid], for which the GI50 in test [1] came to 31 nM. Besides, the pIC50 in the test with MOLT-4 cells was 8.42. In addition, the DC50 at HiBiT-tagged BCL-xL is greater than 1670 nM. On Bcl-xL, this compound returned a DC50 of 0.488 nM, a remaining activity at 0.01 µM of 32% and a remaining activity at 0.1 µM of 9%.

`Cc1cc(N(CCCCCn2cc(CCCCCCCCC(=O)N[C@H](C(=O)N3C[C@H](O)C[C@H]3C(=O)NCc3ccc(-c4scnc4C)cc3)C(C)(C)C)nn2)c2ccc(-c3cnn(CC45CC6(C)CC(C)(C4)CC(OCCN(C)C)(C6)C5)c3C)c(C(=O)O)n2)nnc1Nc1nc2ccccc2s1` [Example 152, 6-[[6-(1,3-benzothiazol-2-ylamino)-5-methyl-pyridazin-3-yl]-[5-[4-[9-[[(1S)-1-[(2S,4R)-4-hydroxy-2-[[4-(4-methylthiazol-5-yl)phenyl]methylcarbamoyl]pyrrolidine-1-carbonyl]-2,2-dimethyl-propyl]amino]-9-oxo-nonyl]triazol-1-yl]pentyl]amino]-3-[1-[[3-[2-(dimethylamino)ethoxy]-5,7-dimethyl-1-adamantyl]methyl]-5-methyl-pyrazol-4-yl]pyridine-2-carboxylic acid]: the GI50 in test [1] came to 121 nM. This compound showed a pIC50 in the test on MOLT-4 cells of 7.09. The DC50 on HiBiT-tagged BCL-xL was greater than 1670 nM; on Bcl-xL, 11.4 nM.
